Results on three molecules are retold here after publication PMC10765884, “MC180295 is a highly potent and selective CDK9 inhibitor with preclinical in vitro and in vivo efficacy in cancer” (Clinical Epigenetics, 2024).

Data set [1] in a line: Liver microsome stability assay. Format: in vitro ADME, human. The settings on record: both sexes, pooled liver microsomes, pH 7.4; for half-life at 1 µM: Human (mixed gender) liver microsomes; for remaining at 1 h, 1 µM: Human liver microsomes, without NADPH, 60 min, read-out: Stability minus NADPH % Remaining @ 60 min. The procedure: (§1) Assays were conducted in 96-deep well polypropylene plates. In duplicate, test compounds (1 µM) were incubated in 0.5 mL of 100 mM potassium phosphate buffer (pH 7.4), with 0.5 mg/ml pooled liver microsomes (Life Technologies: CD-1 male mice # MSMCPL; SD male rat # RTMCPL; mixed gender human # HMMCPL. […] At five time points, 75 µL of reaction mixtures were transferred on ice to a 96-shallow well stop plate containing 225 µL acetonitrile with 0.1 µM propafenone. […] Standard curves for test compounds were generated using 5 concentrations (in duplicate) that were processed as above but with no incubation time. Stop plates were centrifuged at 2000xg for 10 min in a Sorvall ST 16 centrifuge, and 170 µL of the supernatants transferred to a Waters® Aquity UPLC (Ultra Performance Liquid Chromatography) 700 µL 96-well sample plate with cap mat. A Waters® Aquity UPLC BEH C18 1.7 µM, 2.1 × 50 mm column, at 40 °C, was used to fractionate 5 µL samples, using a 3 min linear 5 to 95% acetonitrile gradient in 0.1% formic acid with a 0.75 mL/min flow rate. In tandem with UPLC, compound concentrations were analyzed using a Waters® TQ MS mass spectrometer in electrospray-positive mode (source temperature 150 °C; desolvation temperature 450 °C; desolvation flow rate of 900 L/hr). Cone voltages, collision energies, and quantitation were optimized and determined using Waters® QuanOptimize software, with propafenone as an internal standard. MC180379:CV 34; CE 34; mrm 359.15 > 114.91; MC180390 CV 34; CE 28; mrm 359.15 > 114.92. GraphPad® Prism v 5.04 was used for nonlinear fitting of time course data to generate t1/2 and CLint (intrinsic clearance) values.

Data set [2] can be described thus: Liver microsome stability assay. Format: in vitro ADME. The note with it: pooled liver microsomes, pH 7.4, Cynomologous Monkey liver microsomes; for half-life at 1 µM: cynomolgus monkey; for remaining at 1 h, 1 µM: without NADPH, 60 min, read-out: Stability minus NADPH % Remaining @ 60 min. In general terms: Liver microsomes are vesicles of endoplasmic reticulum, rich in cytochrome P450 enzymes.

A short description of data set [3]: Liver microsome stability assay. Format: in vitro ADME, dog. The note with it: pooled liver microsomes, pH 7.4; for remaining at 1 h, 1 µM: male, beagle, Dog liver microsomes, without NADPH, 60 min, read-out: Stability minus NADPH % Remaining @ 60 min; for half-life at 1 µM: Dog (beagle, male) liver microsomes. The procedure:
as §1

Data set [4] has as its target CDK9/cyclin T (Homo sapiens, UniProt P50750). In words: CDK9/cyclin T inhibition, two independent assays. Format: biochemical. How it is done: CDK enzymatic assays were performed by Reaction Biology Corp. (Malvern, PA), using 10 µM ATP for determining MC180295 IC50 values for each CDK family member for which assays were available. Kinase enzymatic assays were also performed by Nanosyn (Santa Clara, CA), using microfluidic technology and MC180295 IC50 curves against 10 CDKs. Selectivity against CDK9 was confirmed for the enantiomers at Reaction Biology Corp. (Malvern, PA).

The nature of data set [5]: Drug toxicity: body weights and complete blood counts in tumor-bearing mice. Format: in vivo. The settings on record: MV4-11 model, NSG mice, Fig. S4D.
Data set [6] deals with MV4-11-luc cells. In words: MV4-11-luc AML model in NSG mice. The settings on record: MV4-11-luc in NSG mice, 20 mg/kg i.p. q.o.d.; for survival: 20 mg/kg.
Description: E NSG mice were inoculated (i.p.) with 5 × 10^5 MV4-11-luc cells. Four days later, when substantial tumor burden was evident by bioluminescence imaging, MC180379, MC180380, or vehicle were administered (i.p.) q.o.d at 20 mg/kg. Luciferase expression was quantified and calculated. F Mouse survival in days. […] Significances were calculated using log-rank (Mantel-Cox) or Student’s t tests.
0.5 mg/kg DAC was administered (i.p.) daily. […] B Mouse survival in days. 20 mg/kg MC180295 was administered (i.p.) q.o.d. 0.5 mg/kg DAC was administered (i.p.) daily. C NSG mice were inoculated (i.p.) with 5 × 10^5 MV4-11-luc cells. Four days later, when substantial tumor burden was evident by bioluminescence imaging, MC180295 (20 mg/kg) or vehicle were administered (i.p.) every other day. 0.5 mg/kg DAC was administered (i.p.) daily. Luciferase expression was quantified and calculated. […] 0.5 mg/kg DAC was administered (i.p.) daily. Mouse survival shown in days. Significances were calculated using log-rank (Mantel-Cox) or Student's t tests. Data are shown as means ± SEMs. ***p < 0.001
Both female and male NOD.Cg-Prkdcscid Il2rgtm1Wjl/SzJ (NSG) mice were used for the experiments. Age- and gender-matched mice were randomly assigned to each group. 8–10-week-old NSG mice were tail vein-injected with 5 × 10^5 MV4-11-luc cells. […] Natural death or accumulation of ascites fluid were used as endpoints.
Data set [7] is described as follows: Pharmacokinetics in mice. Format: in vivo. The note with it: mouse, plasma. The procedure: Fig. 1 MC180295 enzymatic/growth inhibition and pharmacokinetics. A In vitro activity (IC50 values) of MC180295 against a panel of CDKs. B MC180295 IC50 values against 46 cell lines from 6 different cancer types. C Pharmacokinetic analyses after oral or IV administration of low-dose (1 mg/kg IV or 2.5 mg/kg oral) MC180295 to mice. D Pharmacokinetic analyses after IP administration of 10 mg/kg MC180295 to mice.
We next studied the pharmacokinetics (PK) of MC180295.

Data set [8] concerns 46 cell lines representing 6 different malignancies. In words: Growth inhibition in a panel of cancer cell lines. Format: cell-based. The note with it: 6 malignancies, read-out: median IC50. How it is done: The live-cell assay for GFP reactivation in YB5 cells was done as previously described. Cells were treated with a single dose of drug 24 h after seeding at low density, and GFP fluorescence measured in a Millipore Guava flow cytometer (EMD, Millipore) instrument, or by imaging in a Cytation instrument (Agilent). Cancer cell lines (listed in Additional file 1: Fig. S1A) were obtained from ATCC or the Temple/Fox Chase Cellular Repository and cultured in the recommended medium. To measure growth inhibition, cells were seeded in 96-well plates at 40% confluency. Fresh medium was changed the next day and drugs were added directly. Drug-free fresh medium was changed on the fourth day. The cells were collected on day 5 by trypsin, suspended in medium, mixed with trypan blue (Thermo Fisher Scientific) (1:1 ratio), and counted using a LUNA II automated cell counter. Each sample was counted at least three times, and average numbers used for the analysis. Each treatment condition was performed in biological triplicates.

pIC50: −log10 of the molar value. Entries after “also recorded” stand apart in the source; their conditions may differ. Where two headings read alike, the source gives them in different places.

CDK9/cyclin T, sequence (O60563 whole entry): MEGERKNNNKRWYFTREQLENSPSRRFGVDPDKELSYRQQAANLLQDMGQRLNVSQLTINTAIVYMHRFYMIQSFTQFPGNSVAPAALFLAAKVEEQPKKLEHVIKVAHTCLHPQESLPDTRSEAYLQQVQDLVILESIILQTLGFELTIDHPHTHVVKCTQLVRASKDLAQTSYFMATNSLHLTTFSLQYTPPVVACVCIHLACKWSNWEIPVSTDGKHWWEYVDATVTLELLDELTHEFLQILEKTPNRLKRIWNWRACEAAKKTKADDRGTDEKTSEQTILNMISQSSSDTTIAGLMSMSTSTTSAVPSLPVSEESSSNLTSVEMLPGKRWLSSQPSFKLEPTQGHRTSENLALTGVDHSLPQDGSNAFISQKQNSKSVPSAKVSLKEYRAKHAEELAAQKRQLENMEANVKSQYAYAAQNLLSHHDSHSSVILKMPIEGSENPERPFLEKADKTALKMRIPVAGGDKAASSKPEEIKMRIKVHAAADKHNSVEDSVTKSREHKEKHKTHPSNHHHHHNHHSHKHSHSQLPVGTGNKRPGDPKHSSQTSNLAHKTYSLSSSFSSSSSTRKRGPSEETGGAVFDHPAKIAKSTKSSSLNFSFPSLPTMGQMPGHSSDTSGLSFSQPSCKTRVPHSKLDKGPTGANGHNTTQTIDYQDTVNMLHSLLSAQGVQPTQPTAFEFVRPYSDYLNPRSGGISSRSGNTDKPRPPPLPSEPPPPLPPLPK
CDK9/cyclin T, sequence (P50750 whole entry): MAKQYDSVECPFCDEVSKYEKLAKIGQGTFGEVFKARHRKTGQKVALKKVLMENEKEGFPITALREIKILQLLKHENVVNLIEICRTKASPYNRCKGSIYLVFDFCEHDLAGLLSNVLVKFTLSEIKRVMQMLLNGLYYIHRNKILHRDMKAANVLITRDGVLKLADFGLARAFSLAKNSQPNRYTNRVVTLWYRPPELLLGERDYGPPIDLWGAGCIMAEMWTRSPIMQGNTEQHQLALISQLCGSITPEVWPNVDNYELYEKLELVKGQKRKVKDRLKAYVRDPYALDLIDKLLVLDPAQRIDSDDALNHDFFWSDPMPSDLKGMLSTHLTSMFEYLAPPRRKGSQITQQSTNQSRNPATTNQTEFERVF

For orientation: fraction remaining means the share of the starting amount still present when the sample was taken. For `Nc1nc(N[C@@H]2C[C@H]3CC[C@@H]2C3)sc1C(=O)c1ccccc1[N+](=O)[O-]` [MC180379], the half-life at 1 µM came to 12.2 min in data set [1], 0.8 min in data set [2] and 36.2 min in data set [3]. In addition, the amount remaining at 1 h, 1 µM in data set [1] was found to be 86%; in data set [2] it was 73%; in data set [3], 88%.
As usually defined, the AUC(0-t) is the area under the concentration-time curve up to a stated or last time point. The term Cmax denotes the peak of the concentration-time curve. In general, Tmax refers to the time from dosing to the highest level. Usually AUC stands for the area under the concentration-time curve, a measure of exposure. Broadly, the clearance is a measure of how efficiently the substance is removed, as volume per time. Usually bioavailability stands for the share of a dose that reaches the circulation, judged against a reference dose that is usually intravenous. On to `Nc1nc(N[C@H]2C[C@@H]3CC[C@H]2C3)sc1C(=O)c1ccccc1[N+](=O)[O-]` (relative stereo) [MC180295], for which the “selectivity for CDK9, compared to other CDKs” value in data set [4] is listed as 20 fold. In addition, the pIC50 in data set [4] (based on two independent assays, read-out: IC50 toward CDK9/cyclin T) was 7.92 to 8.52; in data set [8] it was 6.77. The body weights result in data set [5] was “did not affect NSG mouse body weights”. Besides, the survival entry in data set [6] is on record as “significantly extended survival”. This molecule returned an AUC(0-t) in data set [7] (IP 10 mg/kg) of 1370 ng·h/mL. Besides, the Cmax is 1070 ng/mL in data set [7] (IP 10 mg/kg), 210 ng/mL in data set [7] (IV - 1mg/kg) and 96 ng/mL in data set [7] (Oral - 2.5mg/kg). For the same molecule, the results for the Tmax in data set [7] (IP 10 mg/kg) and in data set [7] (Oral - 2.5mg/kg) were 10.2 min and 30 min, respectively. Further, the AUC(0-inf) in data set [7] (IP 10 mg/kg, read-out: AUC 0-inf_obs) was 3840 ng·h/mL. The values for the exposure (AUC) in data set [7] (IV - 1mg/kg) and in data set [7] (Oral - 2.5mg/kg) were 110 ng·h/mL and 71 ng·h/mL, respectively. In data set [7] (IV - 1mg/kg), this molecule showed a clearance of 3.67 mL/min. Moreover, in data set [7] (IV - 1mg/kg, read-out: Vss), the Vd amounted to 0.19 L. Also, the bioavailability in data set [7] (Oral - 2.5mg/kg vs IV - 1mg/kg, as fraction) is 26%; in data set [7] (oral dose of 2.5 mg/kg), 26%. Also, the half-life in data set [7] (ip, 10 mg/kg, IP 10 mg/kg, read-out: T1/2 (converted)) is 947 min; in data set [7] (ip, 10 mg/kg, IP at 10 mg/kg, read-out: half-life (converted)), 948 min; in data set [7] (iv, 1 mg/kg, IV - 1mg/kg, read-out: T1/2 (converted)), 51.6 min; in data set [7] (iv, 1 mg/kg, IV dose of 1 mg/kg, read-out: half-life (converted)) it was 51.6 min; in data set [7] (po, 2.5 mg/kg, Oral - 2.5mg/kg, read-out: T1/2 (converted)), 79.2 min; in data set [7] (po, 2.5 mg/kg, oral dose of 2.5 mg/kg, read-out: half-life (converted)), 78 min.
`Nc1nc(N[C@H]2C[C@@H]3CC[C@H]2C3)sc1C(=O)c1ccccc1[N+](=O)[O-]` [MC180380]: the half-life at 1 µM in data set [1] is 21.1 min; in data set [2], 1.5 min; in data set [3], 52.5 min. Further, the share remaining at 1 h, 1 µM is 88% in data set [1], 51% in data set [2] and 88% in data set [3]. Further, in data set [6], the “tumor burden, as measured by luciferase intensities” value is “lower”. The survival result in data set [6] was “significantly extended survival; also recorded: better survival”.
